Measurements reported in patent US20150018546A1, “HETEROCYCLIC COMPOUND HAVING ANTI-HIV ACTIVITY” (TOYAMA CHEMICAL CO., LTD., priority 2012, published 2015).

The compounds below were run on HIV-1 (JRCSF) (assay: Anti-HIV activity in MaRBLE cells infected with HIV-1 (JRCSF), luciferase readout). Settings: Human immunodeficiency virus 1, 168 h; MaRBLE cells (human T lymphocyte-derived HPB-M(a)) infected with HIV-1 (JRCSF); 7 days culture; rate of viral proliferation by luciferase activity; read-out: Anti-HIV activity IC50.
Type: cell-based
Method: This test was conducted with reference to Journal of Clinical Microbiology, 2007, Vol. 45, p. 477-487.
The anti-HIV activity was evaluated using MaRBLE cells in which a luciferase gene to be expressed under the control of HIV-1 LTR and a CCR5 gene, etc. were introduced in human T lymphocyte-derived HPB-M(a).
A fresh medium or each appropriately diluted test compound was dispensed to 96-well plates to prepare drug solution-containing plates.
The MaRBLE cells were suspended in RPMI1640 containing 10% FCS (fetal calf serum) and penicillin/streptomycin and infected with HIV-1 (JRCSF). Then, the cells were inoculated to the drug solution-containing plates (1×10^5 cells/well). The same number of uninfected cells were inoculated as a control group to the drug solution-containing plates.
After culture at 37° C. for 7 days in a 5% CO2 atmosphere, the intracellular luciferase activity was measured using Steady-Glo Luciferase assay system (Promega Corp.).
The rate of viral proliferation was determined according to the following expression:
Rate of viral proliferation(%)=(A/B)×100
A=(Firefly luciferase activity of the compound-supplemented well)−(Firefly luciferase activity of the uninfected cells)
B=(Firefly luciferase activity of the compound-free well)−(Firefly luciferase activity of the uninfected cells)
IC50 of the compound was calculated by a plot with concentration as the logarithm and the rate of viral proliferation as the real part using the FORECAST function (linear regression method) of Microsoft Office Excel 2003.

Row | IC50 [nM] | SMILES
1 | 65 | Cc1ncnc2c1c(NCc1cccc(C#N)c1)cc(=O)n2OCc1ccccc1 [Example 34, 3-(((8-(benzyloxy)-4-methyl-7-oxo-7,8-dihydropyrido[2,3-d]pyrimidin-5-yl)amino)methyl)benzonitrile]
2 | 68 | Cc1ncnc2c1c(NCC1CCCCC1)cc(=O)n2O [Example 35, 5-((cyclohexylmethyl)amino)-8-hydroxy-4-methylpyrido[2,3-d]pyrimidin-7(8H)-one]
3 | 86 | Cc1ncnc2c1c(NCc1ccccc1F)cc(=O)n2O [Example 36, 5-((2-fluorobenzyl)amino)-8-hydroxy-4-methylpyrido[2,3-d]pyrimidin-7(8H)-one]
4 | 110 | Cc1ncnc2c1c(NC1CCCCC1)cc(=O)n2O [Example 37, 5-(cyclohexylamino)-8-hydroxy-4-methylpyrido[2,3-d]pyrimidin-7(8H)-one]
5 | 42 | COc1ccc(CNc2cc(=O)n(O)c3ncnc(C)c23)c(OC)c1 [Example 38, 5-((2,4-dimethoxybenzyl)amino)-8-hydroxy-4-methylpyrido[2,3-d]pyrimidin-7(8H)-one]
6 | 62 | CCN(CC)c1ccc(CNc2cc(=O)n(O)c3ncnc(C)c23)cc1 [Example 39, 5-((4-(diethylamino)benzyl)amino)-8-hydroxy-4-methylpyrido[2,3-d]pyrimidin-7(8H)-one]
7 | 48 | Cc1ncnc2c1c(NCc1ccc(N(C)C)nc1)cc(=O)n2O [Example 40, 5-(((6-(dimethylamino)pyridin-3-yl)methyl)amino)-8-hydroxy-4-methylpyrido[2,3-d]pyrimidin-7(8H)-one]
8 | 48 | Cc1ncnc2c1c(NCc1cccnc1N(C)C)cc(=O)n2O [Example 41, 5-(((2-(dimethylamino)pyridin-3-yl)methyl)amino)-8-hydroxy-4-methylpyrido[2,3-d]pyrimidin-7(8H)-one]
9 | 72 | Cc1ncnc2c1c(NCc1ccc(C#N)cc1)cc(=O)n2O [Example 42, 4-(((8-hydroxy-4-methyl-7-oxo-7,8-dihydropyrido[2,3-d]pyrimidin-5-yl)amino)methyl)benzonitrile]
10 | 39 | Cc1ccc(CNc2cc(=O)n(O)c3ncnc(C)c23)cc1 [Example 43, 8-hydroxy-4-methyl-5-((4-methylbenzyl)amino)pyrido[2,3-d]pyrimidin-7(8H)-one]
11 | 29 | Cc1ncnc2c1c(NCc1ccc(Cl)cc1)cc(=O)n2O [Example 44, 5-((4-chlorobenzyl)amino)-8-hydroxy-4-methylpyrido[2,3-d]pyrimidin-7(8H)-one]
12 | 170 | Cc1ncnc2c1c(NCc1cccc(OC(F)(F)F)c1)cc(=O)n2O [Example 45, 8-hydroxy-4-methyl-5-((3-(trifluoromethoxy)benzyl)amino)pyrido[2,3-d]pyrimidin-7(8H)-one]
13 | 40 | Cc1ccccc1CNc1cc(=O)n(O)c2ncnc(C)c12 [Example 46, 8-hydroxy-4-methyl-5-((2-methylbenzyl)amino)pyrido[2,3-d]pyrimidin-7(8H)-one]
14 | 59 | Cc1ncnc2c1c(NCc1cccc(Cl)c1)cc(=O)n2O [Example 47, 5-((3-chlorobenzyl)amino)-8-hydroxy-4-methylpyrido[2,3-d]pyrimidin-7(8H)-one]
15 | 93 | Cc1ncccc1CNc1cc(=O)n(O)c2ncnc(C)c12 [Example 48, 8-hydroxy-4-methyl-5-(((2-methylpyridin-3-yl)methyl)amino)pyrido[2,3-d]pyrimidin-7(8H)-one]
16 | 61 | Cc1ncnc2c1c(NCc1ccc3c(c1)OCO3)cc(=O)n2O [Example 49]
17 | 110 | Cc1ccc(CNc2cc(=O)n(O)c3ncnc(C)c23)cn1 [Example 50, 8-hydroxy-4-methyl-5-(((6-methylpyridin-3-yl)methyl)amino)pyrido[2,3-d]pyrimidin-7(8H)-one]
18 | 97 | Cc1ncnc2c1c(NCc1cncc(F)c1)cc(=O)n2O [Example 51, 5-(((5-fluoropyridin-3-yl)methyl)amino)-8-hydroxy-4-methylpyrido[2,3-d]pyrimidin-7(8H)-one]
19 | 20 | Cc1ncnc2c1c(NCc1ccc3c(c1)OCCO3)cc(=O)n2O [Example 52, 5-(((2,3-dihydro-1,4-benzodioxin-6-yl)methyl)amino)-8-hydroxy-4-methylpyrido[2,3-d]pyrimidin-7(8H)-one]
20 | 80 | Cc1ncnc2c1c(NC(C)c1cccnc1)cc(=O)n2O (centres unmarked) [Example 53, 8-hydroxy-4-methyl-5-((1-(pyridin-3-yl)ethyl)amino)pyrido[2,3-d]pyrimidin-7(8H)-one]
21 | 110 | Cc1ccncc1CNc1cc(=O)n(O)c2ncnc(C)c12 [Example 54, 8-hydroxy-4-methyl-5-(((4-methylpyridin-3-yl)methyl)amino)pyrido[2,3-d]pyrimidin-7(8H)-one]

Row | IC50 [nM] | SMILES
22 | 450 | Cc1ncnc2c1c(NCc1nc3ccccc3[nH]1)cc(=O)n2O [Example 55, 5-(((1H-benzimidazol-2-yl)methyl)amino)-8-hydroxy-4-methylpyrido[2,3-d]pyrimidin-7(8H)-one]
23 | 900 | Cc1ncnc2c1c(NCc1ccc(N3CCCCC3)nc1)cc(=O)n2O [Example 56, 8-hydroxy-4-methyl-5-(((6-(piperidin-1-yl)pyridin-3-yl)methyl)amino)pyrido[2,3-d]pyrimidin-7(8H)-one]
24 | 85 | Cc1ncnc2c1c(NCc1cccnc1N1CCOCC1)cc(=O)n2O [Example 57, 8-hydroxy-4-methyl-5-(((2-(morpholin-4-yl)pyridin-3-yl)methyl)amino)pyrido[2,3-d]pyrimidin-7(8H)-one]
25 | 94 | Cc1ncnc2c1c(NCc1ccc(OCC(F)(F)F)nc1)cc(=O)n2O [Example 58, 8-hydroxy-4-methyl-5-(((6-(2,2,2-trifluoroethoxy)pyridin-3-yl)methyl)amino)pyrido[2,3-d]pyrimidin-7(8H)-one]
26 | 160 | Cc1ncnc2c1c(NC(c1ccccc1)c1ccccc1)cc(=O)n2O [Example 59, 5-((diphenylmethyl)amino)-8-hydroxy-4-methylpyrido[2,3-d]pyrimidin-7(81-1)-one]
27 | 190 | O=c1cc(NCc2ccccc2)c2c(-c3ccccc3)ncnc2n1O [Example 60, 5-(benzylamino)-8-hydroxy-4-phenylpyrido[2,3-d]pyrimidin-7(8H)-one]
28 | 490 | O=c1cc(O)c2c(-c3ccccc3)ncnc2n1O [Example 61, 5,8-dihydroxy-4-phenylpyrido[2,3-d]pyrimidin-7(8H)-one]
29 | 870 | O=C(NCc1ccccc1)c1ncnc2c1c(O)cc(=O)n2O [Example 63, N-benzyl-5,8-dihydroxy-7-oxo-7,8-dihydropyrido[2,3-d]pyrimidine-4-carboxamide]
30 | 350 | Cc1ncnc2c1c(O)c(-c1ccccc1)c(=O)n2O [Example 64, 5,8-dihydroxy-4-methyl-6-phenylpyrido[2,3-d]pyrimidin-7(8H)-one]
31 | 560 | O=c1cc(O)c2c(Cc3ccccc3)ncnc2n1O [Example 66, 4-benzyl-5,8-dihydroxypyrido[2,3-d]pyrimidin-7(8H)-one]
32 | 160 | O=c1c(-c2ccccc2)c(O)c2c(-c3ccccc3)ncnc2n1O [Example 67, 5,8-dihydroxy-4,6-diphenylpyrido[2,3-d]pyrimidin-7(8H)-one]
33 | 250 | Cc1c(O)c2c(-c3ccccc3)ncnc2n(O)c1=O [Example 68, 5,8-dihydroxy-6-methyl-4-phenylpyrido[2,3-d]pyrimidin-7(8H)-one]
34 | 790 | O=C(NCc1ccccc1)c1cc2c(NCc3ccccc3)ncnc2n(O)c1=O [Example 70, N-benzyl-4-(benzylamino)-8-hydroxy-7-oxo-7,8-dihydropyrido[2,3-d]pyrimidine-6-carboxamide]
35 | 150 | Cc1ncnc2c1c(NCc1ccccc1-c1cccnc1)cc(=O)n2O [Example 72, 8-hydroxy-4-methyl-5-((2-(pyridin-3-yl)benzyl)amino)pyrido[2,3-d]pyrimidin-7(8H)-one]
36 | 590 | O=c1cc(O)c2c(O)ncnc2n1O [Example 77, 4,5,8-trihydroxypyrido[2,3-d]pyrimidin-7(8H)-one]
37 | 300 | O=C(NCc1ccccc1)c1c(O)c2c(NCc3ccccc3)ncnc2n(O)c1=O [Example 78, N-benzyl-4-(benzylamino)-5,8-dihydroxy-7-oxo-7,8-dihydropyrido[2,3-d]pyrimidine-6-carboxamide]
38 | 820 | O=c1cc(O)c2c(NCc3ccccc3)ncnc2n1O [Example 79, 4-(benzylamino)-5,8-dihydroxypyrido[2,3-d]pyrimidine-7(8H)-one]
39 | 570 | O=c1cc(O)c2c(NCCc3ccccc3)ncnc2n1O [Example 80, 5,8-dihydroxy-4-((2-phenylethyl)amino)pyrido[2,3-d]pyrimidine-7(8H)-one]
40 | 360 | O=C(Nc1ccccc1)c1c(O)c2c(Nc3ccccc3)ncnc2n(O)c1=O [Example 81, 4-anilino-5,8-dihydroxy-7-oxo-N-phenyl-7,8-dihydropyrido[2,3-d]pyrimidine-6-carboxamide]
41 | 370 | Cc1ncnc2c1c(NCc1ccc(C(F)(F)F)nc1)cc(=O)n2O [Example 83, 8-hydroxy-4-methyl-5-(((6-(trifluoromethyl)pyridin-3-yl)methyl)amino)pyrido[2,3-d]pyrimidine-7(8H)-one]
